Experimental data reported in the CheMixHub viscosity set.
Several values for one entry are separate records, joined by “and”; a condition that tells them apart may be missing. Equal entries are not always repeated. ± gives the uncertainty stated by the source.

Experiment: xn = mol fraction of the nth substance listed

OCCNCCO + O
Conditions	viscosity
293.15 K, 101 kPa, x1 = 0.15	12.5 ± 0.25 mPa·s
293.15 K, 101 kPa, x1 = 0.34	91.2 ± 2.2 mPa·s
293.15 K, 101.3 kPa, x1 = 0.02	1.499 mPa·s
293.15 K, 101.3 kPa, x1 = 0.04	2.204 mPa·s
293.15 K, 101.3 kPa, x1 = 0.1	6.515 ± 1.7 mPa·s and 12.37 ± 1.8 mPa·s
293.15 K, 101.3 kPa, x1 = 0.2	25.81 ± 2.2 mPa·s
293.15 K, 101.3 kPa, x1 = 0.3	53.68 ± 4.6 mPa·s
293.15 K, 101.3 kPa, x1 = 0.4	143.3 ± 18 mPa·s
293.15 K, 101.3 kPa, x1 = 0.6	353.7 ± 71 mPa·s
293.15 K, 101.33 kPa, x1 = 0.019	1.427 ± 0.019 mPa·s
293.15 K, 101.33 kPa, x1 = 0.041	2.171 ± 0.028 mPa·s
298.15 K, 101 kPa, x2 = 0.9	5.29 ± 0.05 mPa·s
298.15 K, 101 kPa, x2 = 0.9316	3.1 ± 0.03 mPa·s
298.15 K, 101.3 kPa, x1 = 0.02	1.259 mPa·s
298.15 K, 101.3 kPa, x1 = 0.04	1.875 mPa·s
298.15 K, 101.3 kPa, x1 = 0.07	3.04 mPa·s
298.15 K, 101.3 kPa, x1 = 0.1	5.221 ± 1.7 mPa·s and 9.782 ± 1.7 mPa·s
298.15 K, 101.3 kPa, x1 = 0.2	19.24 ± 1.8 mPa·s
298.15 K, 101.3 kPa, x1 = 0.3	39.15 ± 2.3 mPa·s
298.15 K, 101.3 kPa, x1 = 0.4	97.87 ± 7.9 mPa·s
298.15 K, 101.3 kPa, x1 = 0.6	245.4 ± 41 mPa·s
298.15 K, 101.33 kPa, x1 = 0.0093	1.051 ± 0.013 mPa·s
298.15 K, 101.33 kPa, x1 = 0.0188	1.255 ± 0.015 mPa·s
298.15 K, 101.33 kPa, x1 = 0.0414	1.875 ± 0.022 mPa·s
298.15 K, 101.33 kPa, x1 = 0.069	3.24 ± 0.036 mPa·s
298.15 K, 101.33 kPa, x1 = 0.1028	5.486 ± 0.059 mPa·s
298.15 K, 101.33 kPa, x1 = 0.1469	10.34 ± 0.1 mPa·s
298.15 K, 101.33 kPa, x1 = 0.2054	21.44 ± 0.19 mPa·s
298.15 K, 101.33 kPa, x1 = 0.2884	48.78 ± 0.43 mPa·s
298.15 K, 101.33 kPa, x1 = 0.4026	112.5 ± 3.1 mPa·s
298.15 K, 101.33 kPa, x1 = 0.6059	262.4 ± 15 mPa·s
298.15 K, 101.33 kPa, x1 = 0.8012	420.3 ± 30 mPa·s
298.15 K, 101.33 kPa, x1 = 0.9438	524.1 ± 42 mPa·s
303.15 K, 101 kPa, x1 = 0.0501	1.922 ± 0.11 mPa·s
303.15 K, 101 kPa, x1 = 0.1004	4.138 ± 0.15 mPa·s
303.15 K, 101 kPa, x1 = 0.1509	8.25 ± 0.23 mPa·s
303.15 K, 101 kPa, x1 = 0.2006	14.47 ± 0.38 mPa·s
303.15 K, 101 kPa, x1 = 0.3008	36.44 ± 0.89 mPa·s
303.15 K, 101 kPa, x1 = 0.4014	72.38 ± 1.6 mPa·s
303.15 K, 101 kPa, x1 = 0.5011	118.4 ± 2.9 mPa·s
303.15 K, 101 kPa, x1 = 0.5957	166.7 ± 4.5 mPa·s
303.15 K, 101 kPa, x1 = 0.6968	224.8 ± 6.8 mPa·s
303.15 K, 101 kPa, x1 = 0.8034	279.7 ± 9.1 mPa·s
303.15 K, 101 kPa, x1 = 0.9012	320.5 ± 11 mPa·s
303.15 K, 101.3 kPa, x1 = 0.02	1.106 mPa·s
303.15 K, 101.3 kPa, x1 = 0.07	2.74 mPa·s
303.15 K, 101.3 kPa, x1 = 0.1	4.42 ± 1.7 mPa·s and 8.008 ± 1.7 mPa·s
303.15 K, 101.3 kPa, x1 = 0.2	15.32 ± 1.8 mPa·s
303.15 K, 101.3 kPa, x1 = 0.3	31.19 ± 2.1 mPa·s
303.15 K, 101.3 kPa, x1 = 0.4	73.47 ± 4 mPa·s
303.15 K, 101.3 kPa, x1 = 0.6	162.7 ± 20 mPa·s
303.15 K, 101.33 kPa, x1 = 0.068	2.542 ± 0.032 mPa·s
308.15 K, 101 kPa, x1 = 0.04	1.455 ± 0.0086 mPa·s
308.15 K, 101 kPa, x1 = 0.0501	1.679 ± 0.11 mPa·s
308.15 K, 101 kPa, x1 = 0.054	1.795 ± 0.0098 mPa·s
308.15 K, 101 kPa, x1 = 0.1004	3.502 ± 0.13 mPa·s
308.15 K, 101 kPa, x1 = 0.1509	6.653 ± 0.19 mPa·s
308.15 K, 101 kPa, x1 = 0.2006	11.56 ± 0.29 mPa·s
308.15 K, 101 kPa, x1 = 0.3008	27.8 ± 0.63 mPa·s
308.15 K, 101 kPa, x1 = 0.4014	53.45 ± 1.1 mPa·s
308.15 K, 101 kPa, x1 = 0.5011	85.56 ± 1.9 mPa·s
308.15 K, 101 kPa, x1 = 0.5957	119 ± 2.8 mPa·s
308.15 K, 101 kPa, x1 = 0.6968	158.6 ± 4.2 mPa·s
308.15 K, 101 kPa, x1 = 0.8034	197.1 ± 5.6 mPa·s
313.15 K, 101 kPa, x1 = 0.054	1.585 ± 0.009 mPa·s
313.15 K, 101.3 kPa, x1 = 0.02	0.896 mPa·s
313.15 K, 101.3 kPa, x1 = 0.2	10.02 ± 1.7 mPa·s
313.15 K, 101.3 kPa, x1 = 0.3	17.89 ± 1.8 mPa·s
313.15 K, 101.3 kPa, x1 = 0.4	41.02 ± 2.4 mPa·s
313.15 K, 101.3 kPa, x1 = 0.6	88.54 ± 6.1 mPa·s
313.15 K, 101.33 kPa, x1 = 0.0093	0.755 ± 0.01 mPa·s
313.15 K, 101.33 kPa, x1 = 0.0188	0.878 ± 0.011 mPa·s
313.15 K, 101.33 kPa, x1 = 0.019	0.898 ± 0.012 mPa·s
313.15 K, 101.33 kPa, x1 = 0.041	1.28 ± 0.016 mPa·s
313.15 K, 101.33 kPa, x1 = 0.0414	1.25 ± 0.015 mPa·s
313.15 K, 101.33 kPa, x1 = 0.068	1.93 ± 0.024 mPa·s
313.15 K, 101.33 kPa, x1 = 0.069	1.884 ± 0.022 mPa·s
313.15 K, 101.33 kPa, x1 = 0.1469	5.522 ± 0.06 mPa·s
313.15 K, 101.33 kPa, x1 = 0.2054	10.42 ± 0.1 mPa·s
313.15 K, 101.33 kPa, x1 = 0.2884	21.56 ± 0.19 mPa·s
313.15 K, 101.33 kPa, x1 = 0.4026	44.04 ± 0.38 mPa·s
313.15 K, 101.33 kPa, x1 = 0.6059	95.06 ± 2.1 mPa·s
313.15 K, 101.33 kPa, x1 = 0.8012	143.9 ± 5.2 mPa·s
313.15 K, 101.33 kPa, x1 = 0.9438	175.3 ± 7.5 mPa·s
323.15 K, 101 kPa, x1 = 0.041	1.08 ± 0.01 mPa·s
323.15 K, 101 kPa, x1 = 0.15	4.27 ± 0.05 mPa·s
323.15 K, 101 kPa, x1 = 0.34	20.7 ± 0.32 mPa·s
323.15 K, 101.3 kPa, x1 = 0.02	0.747 mPa·s
323.15 K, 101.3 kPa, x1 = 0.04	1.063 mPa·s
323.15 K, 101.3 kPa, x1 = 0.07	1.604 mPa·s
323.15 K, 101.3 kPa, x1 = 0.2	6.501 ± 1.7 mPa·s
323.15 K, 101.3 kPa, x1 = 0.3	12.21 ± 1.7 mPa·s
323.15 K, 101.3 kPa, x1 = 0.4	24.08 ± 1.9 mPa·s
323.15 K, 101.3 kPa, x1 = 0.6	52.49 ± 2.5 mPa·s
323.15 K, 101.33 kPa, x1 = 0.068	1.469 ± 0.019 mPa·s
